Source: paper PMC10385824, “Antiproliferative and Tubulin-Destabilising Effects of 3-(Prop-1-en-2-yl)azetidin-2-Ones and Related Compounds in MCF-7 and MDA-MB-231 Breast Cancer Cells” (Pharmaceuticals, 2023)
Where two headings read alike, the source gives them in different places.

Tests used:
DU-145 = experiment: NCI-60 SRB screen, prostate cancer; assay type: cell-based, human; settings: Homo sapiens
NCI-H226 = experiment: NCI-60 SRB screen, non-small cell lung cancer; assay type: cell-based; settings: Homo sapiens
[1] = system: MDA-MB-231 human breast cancer cells; experiment: Alamar Blue cell viability (antiproliferative) assay; assay type: cell-based
EKVX = experiment: NCI-60 SRB screen, non-small cell lung cancer; assay type: cell-based, human; settings: Homo sapiens, 48 h
SNB-75 = experiment: NCI-60 SRB screen, CNS cancer; assay type: cell-based, human; settings: Homo sapiens
HCT-15 = experiment: NCI-60 SRB screen, colon cancer; assay type: cell-based, human; settings: Homo sapiens
HOP-92 = experiment: NCI-60 SRB screen, non-small cell lung cancer; assay type: cell-based, human; settings: Homo sapiens
NCI-H460 = experiment: NCI-60 SRB screen, non-small cell lung cancer; assay type: cell-based, human; settings: Homo sapiens
MDA-MB-435 = experiment: NCI-60 SRB screen, melanoma; assay type: cell-based, human; settings: Homo sapiens
[2] = system: NCI 60 human cancer cell line panel; experiment: NCI 60 cell line screen (SRB), panel values; settings: for CC50: read-out: Mean LC50; for IC (TGI (total growth inhibition)): read-out: Mean TGI
A549/ATCC = experiment: NCI-60 SRB screen, non-small cell lung cancer; assay type: cell-based, human; settings: Homo sapiens
MDA-MB-468 = experiment: NCI-60 SRB screen, breast cancer; assay type: cell-based, human; settings: Homo sapiens
M14 = experiment: NCI-60 SRB screen, melanoma; assay type: cell-based, human; settings: Homo sapiens
MDA-MB-231/ATCC = experiment: NCI-60 SRB screen, breast cancer; assay type: cell-based, human; settings: Homo sapiens; for IC50: read-out: Antiproliferative Activity IC50
KM12 = experiment: NCI-60 SRB screen, colon cancer; assay type: cell-based, human; settings: Homo sapiens
OVCAR-8 = experiment: NCI-60 SRB screen, ovarian cancer; assay type: cell-based, human; settings: Homo sapiens
MCF-7 = experiment: cells; settings: Homo sapiens, MCF7, 48 h
ACHN = experiment: NCI-60 SRB screen, renal cancer; assay type: cell-based, human; settings: Homo sapiens, 48 h
K-562 = experiment: NCI-60 SRB screen, leukemia; assay type: cell-based, human; settings: Homo sapiens, K562, 48 h
SK-MEL-2 = experiment: NCI-60 SRB screen, melanoma; assay type: cell-based, human; settings: Homo sapiens
MOLT-4 = experiment: NCI-60 SRB screen, leukemia; assay type: cell-based, human; settings: Homo sapiens
NCI-H332M = experiment: NCI-60 SRB screen, non-small cell lung cancer; assay type: cell-based; settings: Homo sapiens, 48 h
UO-31 = experiment: NCI-60 SRB screen, renal cancer; assay type: cell-based, human; settings: Homo sapiens
SW-620 = experiment: NCI-60 SRB screen, colon cancer; assay type: cell-based, human; settings: Homo sapiens
LOX IMVI = experiment: NCI-60 SRB screen, melanoma; assay type: cell-based, human; settings: Homo sapiens, 48 h
NCI/ADR-RES = experiment: NCI-60 SRB screen, ovarian cancer; assay type: cell-based, human; settings: Homo sapiens, 48 h
MALME-3M = experiment: NCI-60 SRB screen, melanoma; assay type: cell-based, human; settings: Homo sapiens, 48 h
SK-MEL-28 = experiment: NCI-60 SRB screen, melanoma; assay type: cell-based, human; settings: Homo sapiens
NCI-H552 = experiment: NCI-60 SRB screen, non-small cell lung cancer; assay type: cell-based, human; settings: Homo sapiens, 48 h
OVCAR-4 = experiment: NCI-60 SRB screen, ovarian cancer; assay type: cell-based, human; settings: Homo sapiens
SN12C = experiment: NCI-60 SRB screen, renal cancer; assay type: cell-based, human; settings: Homo sapiens, 48 h
SF295 = experiment: NCI-60 SRB screen, CNS cancer; assay type: cell-based, human; settings: Homo sapiens
[3] = Homo sapiens, 60 cell, read-out: Mean GI50, mean over all NCI 60 cell lines
[4] = read-out: Mean GI50, mean over all NCI 60 cell lines
[5] = five dose 0.01–100 µM, read-out: GI50

Structure (SMILES): C=CC=CC1C(=O)N(c2cc(OC)c(OC)c(OC)c2)C1c1ccc(OC)cc1 (stereo not shown) [11h, 3-(Buta-1,3-dienyl)-4-(4-methoxyphenyl)-1-(3,4,5-trimethoxyphenyl)azetidin-2-one]
- GI50 (DU-145; DU-145, 48 h): 27 nM
- GI50 (NCI-H226; NCI-H226, 48 h): 76.8 nM
- IC50 ([1]; read-out: IC50): 31 nM
- GI50 (EKVX): 83.4 nM
- GI50 (SNB-75; SNB-75, 48 h): 30.7 nM
- GI50 (HCT-15; HCT-15, 48 h): 40.5 nM
- GI50 (HOP-92; HOP-92, 48 h): 24.4 nM
- GI50 (NCI-H460; NCI-H460, 48 h): 33.2 nM
- GI50 (MDA-MB-435; MDA-MB-435, 48 h): 19.1 nM
- GI50 [2, 3]: < 91.2 nM
- CC50 ([2]; Homo sapiens, 60 cell): 77600 nM
- IC (TGI (total growth inhibition)) ([2]; Homo sapiens, 60 cell): 8910 nM
- GI50 [2, 4]: 58.9 nM
- GI50 (A549/ATCC; A549, 48 h): 36.4 nM
- GI50 (MDA-MB-468; MDA-MB-468, 48 h): 23.3 nM
- GI50 (M14; M14, 48 h): 19.4 nM
- GI50 (MDA-MB-231/ATCC; MDA-MB-231, 48 h): 29.6 nM
- IC50 (MDA-MB-231/ATCC; MDA-MB-231, 48 h): 31.1 nM
- GI50 (KM12; KM12, 48 h): 30.4 nM
- GI50 (OVCAR-8; OVCAR-8, 48 h): 37.4 nM
- GI50 (MCF-7): 33.5 nM
- GI50 (ACHN): 60.7 nM
- GI50 (K-562): 41 nM
- GI50 (SK-MEL-2; SK-MEL-2, 48 h): 3250 nM
- GI50 (MOLT-4; MOLT-4, 48 h): 36.9 nM
- GI50 (NCI-H332M): 62.6 nM
- GI50 (UO-31; UO-31, 48 h): 216 nM
- GI50 (SW-620; SW-620, 48 h): 43.8 nM
- GI50 (LOX IMVI): 32.7 nM
- GI50 (NCI/ADR-RES): 17.3 nM
- GI50 (MALME-3M; Malme-3M): > 100000 nM
- GI50 (SK-MEL-28; SK-MEL-28, 48 h): 16000 nM
- GI50 (NCI-H552): 15.1 nM
- GI50 (OVCAR-4; OVCAR-4, 48 h): 37.3 nM
- GI50 (SN12C): 50.8 nM
- GI50 (SF295; SF-295, 48 h): 30.9 nM

Structure (SMILES): C=C/C=C/C1C(=O)N(c2cc(OC)c(OC)c(OC)c2)C1c1ccc(OC)c(N)c1 (stereo not shown) [11r, (E)-4-(3-Amino-4-methoxyphenyl)-3-(buta-1,3-dien-1-yl)-1-(3,4,5-trimethoxyphenyl)azetidin-2-one]
- GI50 (DU-145; DU-145, 48 h): 26 nM
- GI50 (NCI-H226; NCI-H226, 48 h): 56.4 nM
- IC50 ([1]; read-out: IC50): 33 nM
- GI50 (EKVX): 88 nM
- GI50 (SNB-75; SNB-75, 48 h): 36.8 nM
- GI50 (HCT-15; HCT-15, 48 h): 37 nM
- GI50 (HOP-92; HOP-92, 48 h): 25.3 nM
- GI50 (NCI-H460; NCI-H460, 48 h): 33.2 nM
- GI50 (MDA-MB-435; MDA-MB-435, 48 h): 22.1 nM
- GI50 [2, 3]: < 91.2 nM
- CC50 ([2]; Homo sapiens, 60 cell): 77600 nM
- IC (TGI (total growth inhibition)) ([2]; Homo sapiens, 60 cell): 38000 nM
- GI50 [2, 4]: 91.2 nM
- GI50 (A549/ATCC; A549, 48 h): 38 nM
- GI50 (MDA-MB-468; MDA-MB-468, 48 h): 26.7 nM
- GI50 (M14; M14, 48 h): 22.3 nM
- GI50 (MDA-MB-231/ATCC; MDA-MB-231, 48 h): 31.5 nM
- IC50 (MDA-MB-231/ATCC; MDA-MB-231, 48 h): 33.7 nM
- GI50 (KM12; KM12, 48 h): 33.1 nM
- GI50 (OVCAR-8; OVCAR-8, 48 h): 38.4 nM
- GI50 (MCF-7): 33.6 nM
- GI50 (ACHN): 61.4 nM
- GI50 (K-562): 39.3 nM
- GI50 (MOLT-4; MOLT-4, 48 h): 39.6 nM
- GI50 (NCI-H332M): 57.9 nM
- GI50 (UO-31; UO-31, 48 h): 190 nM
- GI50 (SW-620; SW-620, 48 h): 42.9 nM
- GI50 (LOX IMVI): 34.4 nM
- GI50 (NCI/ADR-RES): 19.6 nM
- GI50 (SK-MEL-28; SK-MEL-28, 48 h): > 100000 nM
- GI50 (NCI-H552): 16.9 nM
- GI50 (OVCAR-4; OVCAR-4, 48 h): 38.8 nM
- GI50 (SN12C): 59.1 nM
- GI50 (SF295; SF-295, 48 h): 30.1 nM

Structure (SMILES): C=C(C)C1C(=O)N(c2cc(OC)c(OC)c(OC)c2)C1c1ccc(OC)c(OP(=O)(O)O)c1 (stereo not shown) [15a, 2-Methoxy-5-(4-oxo-3-(prop-1-en-2-yl)-1-(3,4,5-trimethoxyphenyl)azetidin-2-yl)-phenyl dihydrogen phosphate]
- GI50 (DU-145; DU-145, five dose 0.01–100 µM, 48 h, read-out: GI50): 80.9 nM
- GI50 (NCI-H226; NCI-H226, five dose 0.01–100 µM, 48 h, read-out: GI50): > 100000 nM
- IC50 ([1]; 72 h, eight concentrations 0.001-50 μM, mean ± SEM, read-out: Antiproliferative Activity IC50): 32 ± 5 nM
- GI50 (SNB-75; SNB-75, five dose 0.01–100 µM, 48 h, read-out: GI50): 36.1 nM
- GI50 (HCT-15; HCT-15, five dose 0.01–100 µM, 48 h, read-out: GI50): 70.7 nM
- GI50 (HOP-92; HOP-92, five dose 0.01–100 µM, 48 h, read-out: GI50): 315 nM
- GI50 (NCI-H460; NCI-H460, five dose 0.01–100 µM, 48 h, read-out: GI50): 44.8 nM
- GI50 (MDA-MB-435; MDA-MB-435, five dose 0.01–100 µM, 48 h, read-out: GI50): 25.9 nM
- GI50 [2, 3]: 138 nM
- CC50 ([2]; Homo sapiens, 60 cell): 85100 nM
- IC (TGI (total growth inhibition)) ([2]; Homo sapiens, 60 cell): 43600 nM
- GI50 (A549/ATCC; A549/ATCC, five dose 0.01–100 µM, 48 h, read-out: GI50): 59.6 nM
- GI50 (MDA-MB-468; MDA-MB-468, five dose 0.01–100 µM, 48 h, read-out: GI50): 131 nM
- GI50 (M14; M14, five dose 0.01–100 µM, 48 h, read-out: GI50): 123 nM
- GI50 (MDA-MB-231/ATCC; MDA-MB-231/ATCC, five dose 0.01–100 µM, 48 h, read-out: GI50): 53.4 nM
- GI50 (KM12; KM12, five dose 0.01–100 µM, 48 h, read-out: GI50): 38.1 nM
- GI50 (OVCAR-8; OVCAR-8, five dose 0.01–100 µM, 48 h, read-out: GI50): 50.6 nM
- GI50 (MCF-7): 51.3 nM
- GI50 (ACHN; [5]): 77.1 nM
- GI50 (K-562; read-out: GI50): 45 nM
- GI50 (SK-MEL-2; SK-MEL-2, five dose 0.01–100 µM, 48 h, read-out: GI50): 75 nM
- GI50 (MOLT-4; MOLT-4, five dose 0.01–100 µM, 48 h, read-out: GI50): 85.2 nM
- GI50 (NCI-H332M; […], five dose 0.01–100 µM, read-out: GI50): 82 nM
- GI50 (UO-31; UO-31, five dose 0.01–100 µM, 48 h, read-out: GI50): 182 nM
- GI50 (SW-620; SW-620, five dose 0.01–100 µM, 48 h, read-out: GI50): 80.7 nM
- GI50 (LOX IMVI; [5]): 42.6 nM
- GI50 (NCI/ADR-RES; [5]): 36.5 nM
- GI50 (MALME-3M; MALME-3M, five dose 0.01–100 µM, read-out: GI50): 30100 nM
- GI50 (SK-MEL-28; SK-MEL-28, five dose 0.01–100 µM, 48 h, read-out: GI50): 83.1 nM
- GI50 (NCI-H552; NCI-H552, five dose 0.01–100 µM, read-out: GI50): 26 nM
- GI50 (OVCAR-4; OVCAR-4, five dose 0.01–100 µM, 48 h, read-out: GI50): 73.9 nM
- GI50 (SN12C; [5]): 192 nM
- GI50 (SF295; SF-295, SF295, five dose 0.01–100 µM, 48 h, read-out: GI50): 32.4 nM
